The text below walks through data of patent EP3985010A1, “SPIROCYCLIC INHIBITORS OF HEPATITIS B VIRUS” (priority 2020, dated 2022).

The test system of the test is HBV. In words: Anti-HBV activity in vitro: quantification of extracellular HBV DNA by direct qPCR in HepAD38 cells. Format: cell-based. The conditions noted are these: Hepatitis B virus, doxycycline-free medium, 96 hours at 37°C, 8-point dose-response curve, read-out: HBV inh EC50. An excerpt:
HepAD38 cell line (Ladner et al., Antimicrob Agents Chemother, 1997, 41, 1715-20) was used for HBV inhibition assays. HepAD38 is a subclone, derived from hepatoblastoma cell line HepG2 (ATCC® Number: HB-8065™), that expresses HBV genome under the transcriptional control of a tetracycline-responsive promoter in a TET-OFF system: addition of doxycycline, an antibiotic belonging to the class of tetracycline, suppresses HBV replication, while its removal switches on the process allowing HBV viral particles release in the cell supernatant. HepAD38 cell line is maintained in DMEM/F12, supplemented with 10% of fetal bovine serum, 1% of glutamine, 1% of penicillin/streptomycin, 0.4 mg/ml G418 and 0,3 ug/ml tetracycline. For the HBV inhibition assay, doxycycline-free medium is used in order to allow virion production.
HBV inhibition activity in vitro was performed in 96 multiwell plates. During the initial (primary) screening, compounds were first tested in triplicates at concentrations of 0.02 µM, 0.1µM, 0.5µM and 1µM. For selected compounds, an 8-point dose-response curve was obtained using 1:2 serial dilutions (starting from 0.01µM, 0.1µM, 0.4µM or 5 µM, depending on the degree of inhibition observed during the primary screening). From the dose-response curves, half maximal effective concentration (EC50) could be calculated (see also below).
In more detail, compounds - typically dissolved in DMSO stock solutions - were diluted to 2x the final desired concentration in 100 µl of the above medium (without doxycycline) and plated in three replicates in the 96-well plates.
Simultaneously, HepAD38 cells - extensively pre-washed in doxycycline-free medium in order to induce HBV production - were suspended at 2^∗10^4 cells in 100 µl of doxycycline-free medium and added to each well of the plate, to yield a final assay volume of 200 µl DMSO - used for stock solutions and compounds dilutions - which was always present in the assays at a final concentration of 0.5%.
Plates were then incubated 96 hours at 37°C and then subjected to cell viability assays and extracellular HBV quantification, in order to evaluate both the cytotoxic potential and the antiviral activity of compounds. Cytotoxicity was assessed by a commercial fluorescence assay that measures the metabolic activity of cells, directly related to cell viability (Cell Titer Blue, Promega). Anti-HBV activity was evaluated by quantification of extracellular HBV DNA with direct qPCR. In particular, supernatant was collected and centrifuged for cell debris clarification, viral DNA was extracted from virions by addition of lysis buffer (1 mM 1,4-dithiothreitol, 0.2% sodium dodecyl sulphate) and incubated at 95°C for 10 min. Samples were then diluted 1:40 and real time PCR amplification was performed with SYBR green assay (Power SYBR™ Green PCR Master Mix-Thermo Fisher Scientific) and specific HBV primer (HBV-DF:5'-[…]-3' (SEQ ID No. 1), HBV-DR:5'-[…]-3' (SEQ ID No. 2)).
Antiviral activity data for each compound are reported as EC50 value (see Table 1 legend). Excel and Graphpad Prism programs are typically used for data elaboration and EC50 calculation.
On the technique in general: Quantitative PCR measures a nucleic acid by following its amplification.
For orientation: EC50 means the concentration needed to bring the measured effect to its halfway point. On to `C[C@@H](NC(=O)C(=O)N1CC[C@]2(COc3c(c(Cl)n(C)c3C(=O)Nc3ccc(F)c(Cl)c3)S(=O)(=O)N2)C1)C(F)(F)F` (stereo in doubt) [Example E33, (R)-8'-chloro-N-(3-chloro-4-fluorophenyl)-7'-methyl-1-(2-oxo-2-(((R)-1,1,1-trifluoropropan-2-yl)amino)acetyl)-2'H,4'H,7'H-spiro[pyrrolidine-3,3'-pyrrolo[3,4-b][1,4,5]oxathiazepine]-6'-carboxamide 1',1'-dioxide], for which the concentration for a half-maximal effect (EC50) was < 500 nM. Under `C[C@@H](NC(=O)C(=O)N1CCC2(COc3c(cn(C)c3C(=O)Nc3ccc(F)c(F)c3)S(=O)(=O)N2)C1)C(F)(F)F` (stereo partly drawn) [Example E1, N-(3,4-difluorophenyl)-7'-methyl-1-(2-oxo-2-(((R)-1,1,1-trifluoropropan-2-yl)amino)acetyl)-2'H,4'H,7'H-spiro[pyrrolidine-3,3'-pyrrolo[3,4-b][1,4,5]oxathiazepine]-6'-carboxamide 1',1'-dioxide] stands < 500 nM.

On to `C[C@@H](NC(=O)C(=O)N1CC2(COc3c(c(Cl)n(C)c3C(=O)Nc3ccc(F)c(Cl)c3)S(=O)(=O)N2)C1)C(F)(F)F` [Example E31, (R)-8'-chloro-N-(3-chloro-4-fluorophenyl)-7'-methyl-1-(2-oxo-2-((1,1,1-trifluoropropan-2-yl)amino)acetyl)-2'H,4'H,7'H-spiro[azetidine-3,3'-pyrrolo[3,4-b][1,4,5]oxathiazepine]-6'-carboxamide 1',1'-dioxide], for which the EC50 is < 500 nM. Take `C[C@@H](NC(=O)C(=O)N1CCC2(COc3c(c(Cl)n(C)c3C(=O)Nc3ccc(F)c(F)c3)S(=O)(=O)N2)C1)C(F)(F)F` (stereo partly drawn) [Example E3, 8'-chloro-N-(3,4-difluorophenyl)-7'-methyl-1-(2-oxo-2-(((R)-1,1,1-trifluoropropan-2-yl)amino)acetyl)-2'H,4'H,7'H-spiro[pyrrolidine-3,3'-pyrrolo[3,4-b][1,4,5]oxathiazepine]-6'-carboxamide 1',1'-dioxide]: the EC50 is < 500 nM. Consider `C[C@H](NC(=O)C(=O)N1CC2(COc3c(cn(C)c3C(=O)Nc3ccc(F)c(Cl)c3)S(=O)(=O)N2)C1)C(F)(F)F` [Example E16, (S)-N-(3-chloro-4-fluorophenyl)-7'-methyl-1-(2-oxo-2-((1,1,1-trifluoropropan-2-yl)amino)acetyl)-2'H,4'H,7'H-spiro[azetidine-3,3'-pyrrolo[3,4-b][1,4,5]oxathiazepine]-6'-carboxamide 1',1'-dioxide], for which the EC50 is < 500 nM. Regarding `Cn1cc2c(c1C(=O)Nc1ccc(F)c(C(F)F)c1)OC[C@@]1(CCN(C(=O)C(=O)NC(C)(C)C(F)(F)F)C1)NS2(=O)=O` [Example E28, (S)-N-(3-(difluoromethyl)-4-fluorophenyl)-7'-methyl-1-(2-oxo-2-((1,1,1-trifluoro-2-methylpropan-2-yl)amino)acetyl)-2'H,4'H,7'H-spiro[pyrrolidine-3,3'-pyrrolo[3,4-b][1,4,5]oxathiazepine]-6'-carboxamide 1',1'-dioxide], the EC50 was < 500 nM. On to `C[C@@H](NC(=O)C(=O)N1CCC2(CC1)COc1c(c(Cl)n(C)c1C(=O)Nc1ccc(F)c(Cl)c1)S(=O)(=O)N2)C(F)(F)F` [Example E30, (R)-8'-chloro-N-(3-chloro-4-fluorophenyl)-7'-methyl-1-(2-oxo-2-((1,1,1-trifluoropropan-2-yl)amino)acetyl)-2'H,4'H,7'H-spiro[piperidine-4,3'-pyrrolo[3,4-b][1,4,5]oxathiazepine]-6'-carboxamide 1',1'-dioxide], for which the EC50 was < 500 nM. As for `C[C@@H](NC(=O)C(=O)N1CC2(COc3c(cn(C)c3C(=O)Nc3ccc(F)c(C(F)F)c3)S(=O)(=O)N2)C1)C(F)(F)F` [Example E10, (R)-N-(3-(difluoromethyl)-4-fluorophenyl)-7'-methyl-1-(2-oxo-2-((1,1,1-trifluoropropan-2-yl)amino)acetyl)-2'H,4'H,7'H-spiro[azetidine-3,3'-pyrrolo[3,4-b][1,4,5]oxathiazepine]-6'-carboxamide 1',1'-dioxide], the EC50 is < 500 nM. Consider `C[C@H](NC(=O)C(=O)N1CCC2(CC1)COc1c(cn(C)c1C(=O)Nc1ccc(F)c(C(F)F)c1)S(=O)(=O)N2)C(F)(F)F` [Example E14, (S)-N-(3-(difluoromethyl)-4-fluorophenyl)-7'-methyl-1-(2-oxo-2-((1,1,1-trifluoropropan-2-yl)amino)acetyl)-2'H,4'H,7'H-spiro[piperidine-4,3'-pyrrolo[3,4-b][1,4,5]oxathiazepine]-6'-carboxamide 1',1'-dioxide], for which the EC50 is < 500 nM.

With `C[C@H](NC(=O)C(=O)N1CCC2(CC1)COc1c(cn(C)c1C(=O)Nc1ccc(F)c(Cl)c1)S(=O)(=O)N2)C(F)(F)F` [Example E12, (S)-N-(3-chloro-4-fluorophenyl)-7'-methyl-1-(2-oxo-2-((1,1,1-trifluoropropan-2-yl)amino)acetyl)-2'H,4'H,7'H-spiro[piperidine-4,3'-pyrrolo[3,4-b][1,4,5]oxathiazepine]-6'-carboxamide 1',1'-dioxide], the EC50 was < 500 nM.

For `C[C@@H](NC(=O)C(=O)N1CC[C@@]2(COc3c(cn(C)c3C(=O)Nc3ccc(F)c(C(F)F)c3)S(=O)(=O)N2)C1)C(F)(F)F` [Example E11, (S)-N-(3-(difluoromethyl)-4-fluorophenyl)-7'-methyl-1-(2-oxo-2-(((R)-1,1,1-trifluoropropan-2-yl)amino)acetyl)-2'H,4'H,7'H-spiro[pyrrolidine-3,3'-pyrrolo[3,4-b][1,4,5]oxathiazepine]-6'-carboxamide 1',1'-dioxide], the EC50 is < 500 nM. For the compound `C[C@@H](NC(=O)C(=O)N1CC[C@@]2(COc3c(cn(C)c3C(=O)Nc3ccc(F)c(Cl)c3)S(=O)(=O)N2)C1)C(F)(F)F` [Example E5, (S)-N-(3-chloro-4-fluorophenyl)-7'-methyl-1-(2-oxo-2-(((R)-1,1,1-trifluoropropan-2-yl)amino)acetyl)-2'H,4'H,7'H-spiro[pyrrolidine-3,3'-pyrrolo[3,4-b][1,4,5]oxathiazepine]-6'-carboxamide 1',1'-dioxide], the EC50 was < 500 nM. To `Cn1cc2c(c1C(=O)Nc1ccc(F)c(Cl)c1)OC[C@@]1(CCN(C(=O)C(=O)NC(C)(C)C(F)(F)F)C1)NS2(=O)=O` [Example E26, (S)-N-(3-chloro-4-fluorophenyl)-7'-methyl-1-(2-oxo-2-((1,1,1-trifluoro-2-methylpropan-2-yl)amino)acetyl)-2'H,4'H,7'H-spiro[pyrrolidine-3,3'-pyrrolo[3,4-b][1,4,5]oxathiazepine]-6'-carboxamide 1',1'-dioxide] belongs < 500 nM; to `C[C@@H](NC(=O)C(=O)N1CC[C@@]2(COc3c(c(Cl)n(C)c3C(=O)Nc3ccc(F)c(C(F)F)c3)S(=O)(=O)N2)C1)C(F)(F)F` [Example E29, (S)-8'-chloro-N-(3-(difluoromethyl)-4-fluorophenyl)-7'-methyl-1-(2-oxo-2-(((R)-1,1,1-trifluoropropan-2-yl)amino)acetyl)-2'H,4'H,7'H-spiro[pyrrolidine-3,3'-pyrrolo[3,4-b][1,4,5]oxathiazepine]-6'-carboxamide 1',1'-dioxide], < 500 nM; to `C[C@@H](NC(=O)C(=O)N1CCC2(CC1)COc1c(cn(C)c1C(=O)Nc1ccc(F)c(C(F)F)c1)S(=O)(=O)N2)C(F)(F)F` [Example E8, (R)-N-(3-(difluoromethyl)-4-fluorophenyl)-7'-methyl-1-(2-oxo-2-((1,1,1-trifluoropropan-2-yl)amino)acetyl)-2'H,4'H,7'H-spiro[piperidine-4,3'-pyrrolo[3,4-b][1,4,5]oxathiazepine]-6'-carboxamide 1',1'-dioxide], < 500 nM.

With `Cn1cc2c(c1C(=O)Nc1ccc(F)c(Cl)c1)OC[C@]1(CCN(C(=O)C(=O)NCC(F)(F)F)C1)NS2(=O)=O` [Example E20, (R)-N-(3-chloro-4-fluorophenyl)-7'-methyl-1-(2-oxo-2-((2,2,2-trifluoroethyl)amino)acetyl)-2'H,4'H,7'H-spiro[pyrrolidine-3,3'-pyrrolo[3,4-b][1,4,5]oxathiazepine]-6'-carboxamide 1',1'-dioxide], the EC50 was < 500 nM.
